Experimental data from patent US20180192601A1, “Composition and Process for Producing Plants Using Anthers of Jatropha Species” (Reliance Industries Limited, priority 2017, published 2018).

What was measured:
Assay type in all cases: cell-based, Jatropha Curcas
[1] = test system: anthers of Jatropha; test: Callus induction (callus formation) from anthers on callus induction composition
Experimental: The flower bud of about 2.5 mm were selected for excision of anthers. The flower buds were blot dried with several layers of sterile filter papers to remove excess moisture.
The anthers were excised from unopened flower buds in the laminar air flow (sterile hood) under aseptic conditions.
About 10 to 12 anthers were inoculated into culture tubes comprising the composition of the present disclosure for callus induction. The inoculated culture tubes were incubated in dark at a temperature of about 25±1° C. for a period ranging from about 25 days to 30 days. The culture tubes were replenished with the composition every three weeks for high frequency induction of callus. […]

[2] = test system: matured embryoids or small plantlets of Jatropha; test: Embryo germination and rooting of seedling
Experimental: The matured embryoids with the photoperiod of 16 hrs light and 8 hrs dark or small plantlets were transferred to the composition of the present disclosure and incubated at temperature ranging from about 25° C. to 28° C. for period of about 25 days to 30 days, for germination, for proliferation of roots and further elongation of shoots.
Table 4 illustrates the effect of different concentrations of IBA individually and in combination of with various concentrations of phloroglucinol and GA3 on embryo germination and rooting of seedling. Among the tested concentrations, IBA-0.1 mg/l, phloroglucinol—0.5 mg/l; Gibberellic acid-0.5 mg/l observed to be effective in producing more number of roots (6 roots/shoot) in 80% of the cultures; employing the composition comprising 100 ml of MS macro elements (10× concentration), about 25 ml of MS micro elements (100× concentration) about 10 ml of MS vitamins (200× concentration); citric aicd—40 mg/l; PVP—250 mg/l; Ascorbic acid—55 mg/l; myo inositol—100 mg/L; sucrose 20 g/L. Phytagel 1.5 g/l.

[3] = test system: embryogenic calli of Jatropha anthers; test: Plant regeneration from embryogenic calli of Jatropha anthers
Experimental: The calli of size ranging from about 0.5 cm to 1.0 cm (breadth) were divided into small pieces and inoculated in the culture tubes comprising the composition of the present disclosure for induction of somatic embryogenesis.
The culture tubes showing the developed somatic embryoids were transferred to composition of the present disclosure for somatic embryo maturation and incubated in light culture room for about 16 hours under photoperiod (provided by cool while fluorescent lamp) and under dark for about 8 hours at a temperature of about 25±1° C. This process is continued until somatic embryos get matured and small shoots are visible.
Regeneration of embryogenic calli or embryoids was stimulated and maintained on various combinations of MSB media. Regenerated shoots were transferred to rooting medium for root development.
Table 3 illustrates the effect of different concentration of IBA individually and in combination with BAP and Kinetin of different concentrations on plant regeneration from embryogenic calli of Jatropha anthers.

O=C(O)COc1ccc(Cl)cc1Cl [2,4-D, 2,4-dichloro phenoxy acetic acid]
2%: Callus formation (%) ([1]; 2,4-D 0.5 mg/L) | Callus formation (%) ([1]; 2,4-D 1 mg/L)
45%: Callus formation (%) ([1]; 2,4-D 5 mg/L)
10%: Callus formation (%) ([1]; 2,4-D 2 mg/L)
20%: Callus formation (%) ([1]; 2,4-D 3 mg/L)
35%: Callus formation (%) ([1]; 2,4-D 4 mg/L)

indole butyric acid [IBA]
0.0%: % of Embryos Germinated ([2]; IBA 0.1 mg/L) | % of Embryos Germinated ([2]; IBA 0.2 mg/L) | % of Embryos Germinated ([2]; IBA 1.0 mg/L) | % of Embryos Germinated ([2]; IBA 2.0 mg/L) | % of Embryos Germinated ([2]; IBA 5.0 mg/L) | % of cultures showed regeneration ([3]; IBA 0.1 mg/L) | % of cultures showed regeneration ([3]; IBA 0.2 mg/L) | % of cultures showed regeneration ([3]; IBA 1.0 mg/L) | % of cultures showed regeneration ([3]; IBA 2.0 mg/L) | % of cultures showed regeneration ([3]; IBA 5.0 mg/L)
0 roots/shoot: No. of roots/shoot ([2]; IBA 0.1 mg/L) | No. of roots/shoot ([2]; IBA 0.2 mg/L) | No. of roots/shoot ([2]; IBA 1.0 mg/L) | No. of roots/shoot ([2]; IBA 2.0 mg/L) | No. of roots/shoot ([2]; IBA 5.0 mg/L)
0 Plants/explant: No of Plants/explant ([3]; IBA 0.1 mg/L) | No of Plants/explant ([3]; IBA 0.2 mg/L) | No of Plants/explant ([3]; IBA 1.0 mg/L) | No of Plants/explant ([3]; IBA 2.0 mg/L) | No of Plants/explant ([3]; IBA 5.0 mg/L)
